Among the data in ChEMBL document CHEMBL1828504, “Synthesis and SAR optimization of diketo acid pharmacophore for HCV NS5B polymerase inhibition” (Eur J Med Chem, 2011) are IC50 values, retold here.

The structures appear in SMILES notation.

In general, IC50 refers to the concentration needed to halve the response being measured.

A short description of this test: Inhibition of recombinant HCV NS5B Cdelta21 polymerase assessed as [alpha-32P]UMP incorporation into RNA after 1 hr by liquid scintillation counting. Details: species or system Hepacivirus hominis.
For the compound `O=C(O)/C(O)=C/C(=O)c1ccc(F)cc1F`, the IC50 stood at 2.4 µM. Consider `O=C(O)/C(O)=C/C(=O)c1c(F)cccc1F`, for which the half-maximal inhibitory concentration (IC50) is 17 µM. As for `CCOC(=O)/C(O)=C/C(=O)c1ccccc1F`, the figure is 12.4 µM; as for `O=C(O)/C(O)=C/C(=O)c1ccc(I)s1`, 63.9 µM.

Turning to `O=C(O)/C(O)=C/C(=O)c1ccc(Cl)s1`, the IC50 was found to be 25.5 µM. As for `O=C(O)/C(O)=C/C(=O)c1cc2cc(Br)ccc2o1`, the figure is 8.2 µM. As for `O=C(O)/C(O)=C/C(=O)c1cc2ccccc2o1`, the figure is 29.6 µM; as for `Cc1ccccc1C(=O)/C=C(\O)C(=O)O`, 6.9 µM; as for `O=C(O)/C(O)=C/C(=O)c1cc2ccccc2s1`, 37.7 µM. For `O=C(O)/C(O)=C/C(=O)c1ccc[nH]1` the value was 21.7 µM. On to `O=C(O)/C(O)=C/C(=O)c1ccccc1F`, for which the half-maximal inhibitory concentration (IC50) turned out to be 14.9 µM. As for `Cc1csc(C(=O)/C=C(\O)C(=O)O)c1`, the figure is 32.7 µM. As for `O=C(O)/C(O)=C/C(=O)c1ccco1`, the figure is 21.8 µM; as for `N#Cc1cccc(C(=O)/C=C(\O)C(=O)O)c1`, 39.7 µM. As for `O=C(O)/C(O)=C/C(=O)c1ccc(Br)s1`, the figure is 31.4 µM; as for `O=C(O)/C(O)=C/C(=O)c1cccc(-c2nnn[nH]2)c1`, 5.2 µM; as for `O=C(O)/C(O)=C/C(=O)c1cccc(F)c1`, 49.9 µM.

Turning to `O=C(O)/C(O)=C/C(=O)c1ccc(-c2ccccc2)cc1`, the IC50 was found to be 20.9 µM.

Regarding `O=C(O)/C(O)=C/C(=O)c1n[nH]c2ccccc12`, the IC50 was determined as 24.7 µM. Take `O=C(O)/C(O)=C/C(=O)c1nccs1`: the IC50 stood at 30.4 µM. As to `CCOC(=O)/C(O)=C/C(=O)c1n[nH]c2ccccc12`, the IC50 is 38.4 µM.

As to `O=C(O)/C(O)=C/C(=O)c1ccc(Cl)cc1Cl`, the 50% inhibitory concentration (IC50) is 49.7 µM.

On to `O=C(O)/C(O)=C/C(=O)c1cccs1`, for which the IC50 was determined as 17.3 µM.

For the compound `O=C(O)/C(O)=C/C(=O)c1ccccc1[N+](=O)[O-]`, the half-inhibitory concentration (IC50) stood at 11.3 µM. With `Cc1ccsc1C(=O)/C=C(\O)C(=O)O`, the half-inhibitory concentration (IC50) turned out to be 7.5 µM. For the compound `Cc1ccc(C(=O)/C=C(\O)C(=O)O)s1`, the half-inhibitory concentration (IC50) was determined as 55.5 µM.
